Test results taken from PubChem BioAssay AID463178 (University of Pittsburgh Molecular Library Screening Center, 2010).
pIC50: −log10 of the molar value. Calls of active or inactive are those of the source.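 The calls were made as follows: active = IC50 below a set limit in both duplicate runs and mean IC50 below a set limit; inconclusive = IC50 above a set limit in only one run; inactive = IC50 above a set limit in both runs and mean.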

Test system: Jurkat FADD-/- TNF-alpha necroptosis, CellTiter-Glo ATP, 24 h
Test: inhibitors of TNF-alpha triggered necroptosis, potency, dose response, cell-based, Jurkat FADD-/-, duplicate IC50 (AID 463178)

| SMILES | pIC50 | IC50 |
| --- | --- | --- |
| Cc1ccc(NC(=O)C2COc3ccccc3O2)nc1 (stereo not drawn) | 5.00 | – |
| O=C(O)c1ccc(/C=N/Nc2ccc(C(F)(F)F)cn2)cc1 | 5.20 | – |
| COc1ccc(-n2c(C)nn(CC3CC3)c2=O)cc1 | 5.29 | – |
| Cc1cnc(NC(=O)C2(c3ccccc3)CC2)s1 | – | > 20 µM (inactive) |
| COC(C(=O)Nc1ccc(Br)cc1F)c1ccccc1 (stereo not drawn) | 4.97 | – |
| CC(NC(=O)c1cc(Br)ccc1Cl)c1ccccc1 (stereo not drawn) | – | > 20 µM (inactive) |
| COc1ccc(C2CN=NC2C(=O)c2ccccc2)cc1 (stereo not drawn) | 4.78 | – |
| O=C(C1COc2ccccc2O1)N1CCc2ccccc21 (stereo not drawn) | 5.24 | – |
| O=C(Nc1nccs1)c1ccc(S(=O)(=O)N2CCCCC2)cc1 | – | > 20 µM (inactive) |
| O=C(CSCc1ccc([N+](=O)[O-])cc1)NC1CC2CCC1C2 (stereo not drawn) | 4.87 | – |
| O=C(Cn1cnc2ccc(Br)cc2c1=O)c1cccs1 | – | > 20 µM (inactive) |
| Cc1ccc(C)c(C2=NNC(=NCc3ccccc3)SC2)c1 | 4.82 | – |
| Cc1nc2oc3ccccc3c(=O)c2c(=O)n1Cc1ccccc1 | 4.84 | – |
| Cc1cnc(NC(=O)C2COc3ccccc3O2)s1 (stereo not drawn) | – | > 20 µM (inactive) |
| Cc1ccc(C(=O)NC(C#N)=C(Cl)Cl)cc1 | – | > 20 µM (inactive) |
| O=[N+]([O-])c1ccc(Nc2ccccc2F)nc1 | 4.81 | – |
| COc1ccc(NC(=O)C(OC)c2ccccc2)cc1Cl (stereo not drawn) | 4.92 | – |
| Fc1ccc(C2=NNC(=NCc3ccccc3)SC2)cc1F | – | > 20 µM (inactive) |
| O=C(OC(C(=O)Nc1ccc([N+](=O)[O-])cc1Br)c1ccccc1)c1ccccc1 (stereo not drawn) | – | > 20 µM (inactive) |
| O=C1NC(=Nc2ccccc2)SC1Cc1cccc(Cl)c1Cl (stereo not drawn) | – | > 20 µM (inactive) |

| SMILES | pIC50 | IC50 |
| --- | --- | --- |
| c1ccc(CSc2nnc(-c3ccco3)o2)cc1 | 4.76 | – |
| O=C(Nc1cccc(Cl)c1)N1N=CCC1c1ccccc1 (stereo not drawn) | 5.89 | – |
| CCn1c([N+](=O)[O-])nc2c1c(=O)[nH]c(=O)n2C | – | > 20 µM (inactive) |
| Cc1csc(Nc2ccc(Cl)cc2)[n+]1-c1ccc(Cl)cc1 | – | > 20 µM (inactive) |
| COC(C(=O)Nc1cccc(F)c1)c1ccccc1 (stereo not drawn) | 5.19 | – |
| Cc1ccc(CC(=O)Nc2ncc([N+](=O)[O-])s2)cc1 | – | > 20 µM (inactive) |
| COCCNS(=O)(=O)c1ccc(SC)cc1 | 5.04 | – |
| O=S(=O)(c1cccc2cccnc12)N1CCN(c2ccc(F)cc2)CC1 | – | > 20 µM (inactive) |
| O=C(COc1ccccc1Cl)NC(=O)NC1CCCC1 | 4.90 | – |
| Cc1ccc(CN2CCSc3sccc3C2=O)cc1 | 5.03 | – |
| Cc1ccc(Oc2ccccc2/C=C2\SC(=O)N(C)C2=O)cc1 | – | > 20 µM (inactive) |
| O=C(Nc1cccc2ccccc12)N1N=CCC1c1ccccc1 (stereo not drawn) | – | > 20 µM (inactive) |
| COc1ccc(/C=N/Nc2ccccn2)cc1O | 4.83 | – |
| Cc1nn(Cc2ccccc2)c(N)c1C#N | 5.03 | – |
| Clc1cccc(Cl)c1Cn1ccc(C2CC2)n1 | 5.32 | – |
| Cc1nnsc1C(=O)NCc1c(F)cccc1Cl | 5.12 | – |
| O=C(NCc1c(Cl)cccc1Cl)c1ccc2nnsc2c1 | – | > 20 µM (inactive) |
| c1csc(Cc2nc3ccccc3[nH]2)c1 | 5.05 | – |
| S=C(Nc1ccccc1)N1N=CCC1c1ccccc1 (stereo not drawn) | 5.12 | – |
| O=C(Nc1ccccc1)N1N=CCC1c1ccccc1 (stereo not drawn) | 5.83 | – |

| SMILES | pIC50 | IC50 |
| --- | --- | --- |
| O=C(NNc1c(Cl)cccc1Cl)C1CCC1 | 5.01 | – |
| O=C(Nc1ccc(Cl)cc1)N1N=CCC1c1ccccc1 (stereo not drawn) | 4.93 | – |
| CC(=O)Nc1ccc(/C=N/Nc2nc3ccccc3s2)cc1 | – | > 20 µM (inactive) |
| COc1ccc(NC(C)c2ccccc2)cc1 (stereo not drawn) | 4.85 | – |
| COC(C(=O)Nc1ccc(S(=O)(=O)N2CCCCC2)cc1)c1ccccc1 (stereo not drawn) | – | > 20 µM (inactive) |
| COc1ccc(-n2cnc3cc(NS(=O)(=O)c4ccccc4)ccc32)cc1 | – | > 20 µM (inactive) |
| O=C(Nc1ncc(Cc2ccccc2)s1)C1COc2ccccc2O1 (stereo not drawn) | – | > 20 µM (inactive) |
| Cc1ccc(Cn2cnc3sc4c(c3c2=O)CCC4)c(C)c1 | – | > 20 µM (inactive) |
| CC(=O)N(c1ccccc1)c1nnc(-c2cnc(C)cn2)s1 | 4.97 | – |
| O=C(Nc1nccs1)c1cc2c(s1)CCCCC2 | – | > 20 µM (inactive) |
| Cc1cc([N+](=O)[O-])nn1Cc1ccc(F)cc1 | 5.15 | – |
| O=C(CSC(=S)N1CCOCC1)N1N=CCC1c1ccccc1 (stereo not drawn) | 5.03 | – |
| O=C(c1ccc([N+](=O)[O-])cc1)N1CCSC1c1ccccc1Cl (stereo not drawn) | – | > 20 µM (inactive) |
| O=C(Cn1cnc2ccc(Cl)cc2c1=O)c1cccs1 | – | > 20 µM (inactive) |
| COc1ccc(-c2nc3c(-c4ccccc4)cnn3cc2C)cc1F | – | > 20 µM (inactive) |
| C/C(Cl)=C/CN1C(=O)C2C3C=CC(C3)C2C1=O (stereo not drawn) | 5.19 | – |
| O=[N+]([O-])c1ccc(Nc2ccc(F)cc2)nc1 | 4.83 | – |
| Cc1ccc(SCC(=O)N2N=CCC2c2ccccc2)cc1 (stereo not drawn) | 4.93 | – |
